Experimental data published in patent US7951779B2, “Method of protecting cells against damage and pharmaceutical composition comprising leumorphin” (Postech Academy-Industry Foundation, priority 2005, dated 2011).
Structures can show the parent of a compound that is named as a salt. Where two headings read alike, the source gives them in different places.

Key:
[1] = test system: PC12 cells; experiment: MTT conversion assay of cell viability under serum deprivation; format: cell-based, rat
[2] = test system: AKT and ERK; format: cell-based, rat
[3] = biological target: T1, KOR (Rattus norvegicus, UniProt P34975); format: cell-based
T1 construct: confirming that the KOR ligands we used have proper activities and that functional KOR is expressed in PC12 cells; endogenous in cells; host or cells: PC12 (rat pheochromocytoma)
T1 sequence (P34975 whole entry): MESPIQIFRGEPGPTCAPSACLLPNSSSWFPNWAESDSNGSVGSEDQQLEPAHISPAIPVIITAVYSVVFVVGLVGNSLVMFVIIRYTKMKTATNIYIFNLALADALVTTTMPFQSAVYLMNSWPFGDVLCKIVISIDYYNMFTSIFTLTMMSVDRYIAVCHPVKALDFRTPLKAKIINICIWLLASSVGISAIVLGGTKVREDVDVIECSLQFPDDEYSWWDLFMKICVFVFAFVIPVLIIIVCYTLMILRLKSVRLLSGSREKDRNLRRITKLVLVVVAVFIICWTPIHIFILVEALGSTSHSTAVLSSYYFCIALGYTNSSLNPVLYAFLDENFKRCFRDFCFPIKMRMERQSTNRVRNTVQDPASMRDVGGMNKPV

[4] = test system: PC12 cells; experiment: Competition binding assay of 125I-labeled leumorphin in PC12 cells; design: species or system rat
Description: Ligand binding analysis was performed as previously described (Bae et al., 2004). Briefly, PC12 cells were seeded at a density of 4×10^5 cells/well into a 12-well plate and cultured overnight. After incubating the cells in blocking buffer (33 mM HEPES (pH 7.5) and 0.1% BSA in RPMI 1640) for 2 hr, 25 pM of ^125I-labeled leumorphin dissolved in binding buffer (PBS containing 0.1% BSA) was added to the cells in the absence or presence of unlabeled ligands and incubated for 3 hr at 4° C. The samples were then washed five times with ice-cold binding buffer, and 500 μl of 1 N NaOH was added to each well. After 10 min at room temperature, the lysates were collected and counted using a gamma counter.
We investigated the possibility that leumorphin might have another binding site(s), in addition to the binding site for the KOR in PC12 cells. That is, an inhibition of [^125I]leumorphin binding in PC12 cells was investigated. PC12 cells were treated with various concentrations of unlabeled leumorphin, (−)-U-50488 and nor-BNI in the presence of ^125I-labeled leumorphin (25 pM) for 3 hr at 4° C. Specifically bound ^125I-labeled leumorphin was measured as described in “Materials and Methods”. For this purpose, we performed competition binding assay of ^125I-labeled leumorphin with unlabeled-agonists, leumorphin and (−)-U-50488, and an antagonist, nor-BNI.

[5] = test system: EGFR; experiment: EGFR tyrosine phosphorylation, immunoprecipitation and Western blot in PC12 cells; format: cell-based, rat; details: for effect on leumorphin-induced tyrosine phosphorylation of EGFR: preincubation 20 min: AG1478 1 μM, PP2 5 μM, naloxone or nor-BNI 1 μM, then leumorphin 1 μM 2 min
Description: Immunoprecipitation was performed as previously described (Daub et al., 1997). In brief, cells were washed with ice-cold PBS and lysed with lysis buffer (50 mM HEPES pH 7.5, 150 mM NaCl, 1% Triton X-100, 1 mM EDTA, 10% glycerol) containing protease inhibitors (0.5 mM PMSF, 1 μg/ml leupeptin and 5 μg/ml aprotinin) and phosphatase inhibitors (30 mM NaF, 1 mM Na3VO4 and 30 mM Na4O7P2). The cell lysates were incubated for 1 hr at 4° C. After centrifugation (12,000×g for 15 min), equal amounts of soluble extract were incubated for 4 hr, with 5 μg of anti-EGFR antibody and 30 μl of resin volume of immobilized protein G For gel electrophoresis, the precipitates were dissolved in Laemmli sample buffer.
FIGS. 5C and 5D, PC12 cells were stimulated with the indicated doses of leumorphin for 10 min (C) or with 1 μM of leumorphin for the indicated times (D). […] Cell lysates were subjected to Western blot analysis after immunoprecipitation with EGFR antibodies. Tyrosine-phosphorylated EGFRs were detected by immunoblotting with phosphotyrosine antibodies. The amounts of the precipitated EGFRs were monitored by reprobing the same blot with EGFR antibodies. […] In FIG. 5G, PC12 cells were preincubated with 1 μM AG1478 or 5 μM PP2 for 20 min and then stimulated with 1 μM leumorphin for 10 min. Phosphorylation of AKT and ERK was detected by Western blot analysis as in FIG. 4F. C-E,

[6] = test system: PC12 cells; experiment: DNA ploidy analysis (FACS, sub-Go/Gl) in serum-deprived PC12 cells; format: cell-based, rat; details: 24 hr; for effect on the anti-apoptotic effect of leumorphin (sub-Go/Gl): antagonist 1 μM with leumorphin 1 μM
Description: Cells were suspended in PBS containing 5 mM EDTA and fixed in 100% ethanol. RNase A (50 μg/ml) was added to the suspended cells, and the cells were incubated at room temperature for 30 min. Propidium iodide (2 μg/ml) was added before reading. DNA contents of the cells were analyzed using a FACScan flow cytometer (Becton Dickinson, Franklin Lakes, N.J.), which was also used to determine the percentage of cells in the different phases of the cell cycle.
(§1) In FIG. 6A, Fragmentation of DNA in the nucleus was detected by a fluorescent TUNEL apoptosis assay. TUNEL stainings are shown in a-c, PI stainings are shown in d-f, and the merged images are presented in g-i. […] Each bar represents a fold increase of TUNEL-positive population of cells after treatment as indicated in serum-deprived condition versus those in serum-growing condition. In FIG. 6C, in order to analyze DNA ploidy, cells were fixed with ethanol, and FACS analysis was performed as described in “Materials and Methods”. In FIG. 6D, caspase-3 activity was measured by using a specific fluorogenic substrate of caspase-3 (Ac-DEVD -AMC) as described in “Materials and Methods”.

[7] = test system: caspase-3; experiment: Caspase-3 enzymatic activity in PC12 cell lysates; format: cell-based, rat; details: 24 hr
Description: PC12 cell lysates were centrifuged at 1,000×g for 10 min. Equal amount of supernatant (20 μg protein) was diluted in buffer containing 100 mM Hepes, 10% sucrose, 5 mM dithiothreitol, […], and 0.1% CHAPS (pH 7.25), and was added to each well of a 96-well plate containing 50 μM DEVD-aminomethylcoumarin (AMC). After incubation at 37° C. for 1 hr, the cleaved free AMC was detected using a fluorospectrophotometer (excitation of 355 nm, emission of 460 nm).
as §1

[8] = test system: AKT and ERK; experiment: AKT and ERK phosphorylation in HEK-293 cells that do not express the KOR; format: cell-based; details: data not shown
[9] = test system: PC12 cells; experiment: TUNEL apoptosis assay in serum-deprived PC12 cells; format: cell-based, rat; details: leumorphin 1 μM, 24 hr
Description: TUNEL assay was performed according to the manufactures' instruction (Promega Corp.). Briefly, cells on coverslips were fixed with 4% paraformaldehyde for 30 min after stimulation, washed with PBS, permeabilized with 0.2% Triton X-100 for 5 min, rinsed with PBS, and were incubated with 25 μL TUNEL reaction mixture (containing enzyme, nucleotides, and fluorescein-dUTP) in a humidified atmosphere at 37° C. for 1 hr. To observe nuclear morphology, cells were counterstained with 2 μg/ml propidium iodide. Following these incubations, coverslips were rinsed with PBS three times and analyzed under conforcal microscopy We captured images which had at least 100 cells and used five different images from three independent experiments for statistic analysis.
It has been reported that in PC12 cells apoptosis can be induced by serum deprivation, which mimics the fluctuations in the supply of growth factors (Batistatou et al., 1993). […]
In FIG. 6A, Fragmentation of DNA in the nucleus was detected by a fluorescent TUNEL apoptosis assay. […] In FIG. 6D, caspase-3 activity was measured by using a specific fluorogenic substrate of caspase-3 (Ac-DEVD -AMC) as described in “Materials and Methods”.

Oc1ccc2c3c1O[C@H]1c4[nH]c5ccccc5c4C[C@@]4(O)[C@@H](C2)N(CC2CC2)CC[C@]314 [naltrindole]
effect on leumorphin-induced enhancement of cell viability [1]: failed to attenuate | effect on leumorphin-induced increase in cell viability at higher concentration [1]: failed to attenuate

UFP-101
effect on leumorphin-induced phosphorylation of AKT and ERK [2]: did not have any effect

CS/C(N)=C(C#N)/C(C#N)=C(\N)SC [U0124]
effect of kinase inhibitor on leumorphin-induced enhancement of cell viability [1]: had no effect

Oc1ccc2c3c1O[C@H]1c4[nH]c5c(c4C[C@@]4(O)[C@@H](C2)N(CC2CC2)CC[C@]314)C[C@@]1(O)[C@H]2Cc3ccc(O)c4c3[C@@]1(CCN2CC1CC1)[C@H]5O4 [nor-BNI, nor-binaltorphimine dihydrochloride]
effect on leumorphin-induced enhancement of cell viability [1]: insensitive | effect on leumorphin-induced increase in cell viability at higher concentration [1]: failed to attenuate | effect on the inhibitory effect of leumorphin on forskolin-induced increase of cAMP content [3]: reversed | concentration at which the inhibitory extent reached its maximum and was saturated ([4]; 25 pM 125I-labeled leumorphin, 3 hr, 4° C.): 100 nM | effect on leumorphin-induced phosphorylation of AKT and ERK [2]: Neither of the antagonists, naloxone and nor-BNI, inhibited | effect on the phosphorylation level of AKT and ERK when given alone [2]: did not have any effects | effect on leumorphin-induced tyrosine phosphorylation of EGFR [5]: neither nor-BNI nor naloxone exhibited any inhibitory effect | effect on the anti-apoptotic effect of leumorphin (sub-Go/Gl) [6]: failed to block | effect on the inhibitory effect of leumorphin on caspase activity ([7]; nor-BNI 1 μM with leumorphin 1 μM): not blocked

D-Phe-Cys-Tyr-D-Trp-Om-Thr-Pen-Thr-NH2 [CTOP]
effect on leumorphin-induced enhancement of cell viability [1]: failed to attenuate | effect on leumorphin-induced increase in cell viability at higher concentration [1]: failed to attenuate

COc1cccc(-c2cc(=O)c3ccccc3o2)c1N [PD98059, [2′-amino-3′-methoxyflavone]
effect of kinase inhibitor on leumorphin-induced enhancement of cell viability [1]: attenuated

dynorphin
cell viability (MTT conversion, percentage of surviving cells) [1]: did not have any significant effect on cell viability | phosphorylation of AKT and ERK [2]: none of these effects were elicited

rimorphin
cell viability (MTT conversion, percentage of surviving cells) [1]: none of these effects were elicited | phosphorylation of AKT and ERK [2]: none of these effects were elicited

pertussis toxin [PTX]
effect on leumorphin-induced enhancement of cell viability [1]: unaffected | effect on the inhibitory effect of leumorphin on forskolin-induced increase of cAMP content ([3]; naloxone or nor-BNI 1 μM, PTX 100 ng/ml 20 hr, leumorphin 1 μM): reversed | effect on leumorphin-induced phosphorylation of AKT and ERK [2]: did not have any inhibitory effects | effect on the phosphorylation level of AKT and ERK when given alone [2]: did not have any effects

O=c1cc(N2CCOCC2)oc2c(-c3ccccc3)cccc12 [LY294002, [2-(4-morpholinyl)-8-phenyl-4H-1-benzopyran-4-one]]
effect of kinase inhibitor on leumorphin-induced enhancement of cell viability ([1]; inhibitor 5 μM (AG1478 1 μM) with leumorphin 1 μM, 24 hr): attenuated

N#CC(=C(/N)Sc1ccccc1N)/C(C#N)=C(\N)Sc1ccccc1N [U0126]
effect of kinase inhibitor on leumorphin-induced enhancement of cell viability [1]: attenuated

C=CCN1CC[C@]23c4c5ccc(O)c4O[C@H]2C(=O)CC[C@@]3(O)[C@H]1C5 [naloxone]
effect on leumorphin-induced enhancement of cell viability [1]: insensitive | effect on leumorphin-induced phosphorylation of AKT and ERK [2]: Neither of the antagonists, naloxone and nor-BNI, inhibited | effect on the phosphorylation level of AKT and ERK when given alone [2]: did not have any effects | effect on leumorphin-induced tyrosine phosphorylation of EGFR [5]: neither nor-BNI nor naloxone exhibited any inhibitory effect | effect on the anti-apoptotic effect of leumorphin (sub-Go/Gl) [6]: failed to block

leumorphin
cell viability (MTT conversion, percentage of surviving cells) [1]: specifically enhanced | dose- and time-dependence of enhancement of cell viability [1]: dose-(FIG. 1D) and a time-dependent (FIG. 1E) manner | effect on forskolin-induced increase of cAMP contents ([3]; agonist 1 μM, 10 min, Ro-20-1724 pretreatment): inhibitory effect | concentration up to which the inhibitory extent continued to increase [4]: 10 µM | replacement of labeled leumorphin [4]: completely replaced | phosphorylation of AKT and ERK [2]: specifically induced phosphorylation of both AKT and ERK | phosphorylation of AKT and ERK in HEK-293 cells [8]: specifically induced phosphorylation of AKT and ERK | tyrosine phosphorylation of EGFR ([5]; indicated doses for 10 min, 1 μM for indicated times): induced tyrosine phosphorylation of EGFR in dose- and time-dependent manner | population of TUNEL-positive cells increased by serum deprivation [9]: significantly reduced | sub-Go/Gl area, indicative of the apoptotic population ([6]; leumorphin 1 μM, serum deprivation, 35.7±2.2% without leumorphin): 25.8±1.8% | activity of caspase-3 elevated by serum-deprivation ([7]; leumorphin 1 μM): decreased

β-endorphin (YGGFMTSEKSQTPLVTLFKNAIIKNAYKKGE; Beta-endorphin; UniProt P01189 237-267, looked up) [an agonist of the ε-type receptor]
phosphorylation of AKT and ERK [2]: neither AKT nor ERK was phosphorylated

β-neoendorphin (YGGFLRKYP; Beta-neoendorphin; UniProt P01213 175-183, looked up) [prodynorphin gene product, endogenous KOR ligand]
cell viability (MTT conversion, percentage of surviving cells) [1]: none of these effects were elicited | phosphorylation of AKT and ERK [2]: none of these effects were elicited

CC(C)(C)n1nc(-c2ccc(Cl)cc2)c2c(N)ncnc21 [PP2]
effect of kinase inhibitor on leumorphin-induced enhancement of cell viability [1]: significantly inhibited | effect on leumorphin-induced phosphorylation of AKT and ERK [2]: significantly inhibited | effect on leumorphin-induced tyrosine phosphorylation of EGFR [5]: completely blocked to the basal level
